Experimental findings from PMC9655618 (Cancers, 2022) are described below.

One test concerns BT-549 cells. Kind of test: MTT cell viability assay. It counts as cell-based, human. The settings on record: 10%FBS growth media. As to the method: (§1) Straightforward, the tetrazolium salt 3-(4,5-methyltiazol-2yl-)-2,5diphenyl-tetrazolium bromide (MTT) (Applichen, Darmstadt, Germany) was added to cells, incubated for 2–4 h at 37 °C, and lysed in 10% SDS.
In another test the test system is MDA-MB-231 cells. Kind of test: MTT cell viability assay. Format: cell-based, human. The settings on record: 10%FBS growth media. As to the method: as §1
A general note: Tetrazolium assays rely on reduction of a dye to a coloured formazan, in cell work by metabolically active cells.

A further test relates to MCF-7 cells. Kind of test: MTT cell viability assay. The settings on record: 10%FBS growth media. It counts as cell-based, human. As to the method: as §1
In a further test the test system is MCF-10A cells. Description: MTT cell viability assay. It counts as cell-based, human. The conditions noted are these: 72 h, 10%FBS growth media. As to the method:
as §1

The next test deals with SK-BR-3 cells. Kind of test: MTT cell viability assay. The conditions noted are these: 10%FBS growth media. It counts as cell-based, human. As to the method:
as §1

A further test concerns Hs-578T cells. Description: MTT cell viability assay. Format: cell-based, human. The conditions noted are these: 72 h, 10%FBS growth media. As to the method: as §1
The subject of a further test is Ishikawa cells. Kind of test: MTT cell viability assay. It counts as cell-based, human. The conditions noted are these: read-out: IC50 (μM) ISHIKAWA, 72 h, 10%FBS growth media. As to the method:
as §1

The subject of a further test is MCF-7/BUS cells. Kind of test: MTT cell viability assay. Format: cell-based, human. The settings on record: 72 h, 10%FBS growth media, MTT, read-out: IC50 (μM) MCF-7/BUS. As to the method:
as §1

The test system of test [1] is ER+ cancer cells (i.e., MCF-7, MCF-7/BUS, T47D and Ishikawa cells). Description: MTT cell viability, summary over ER+ cancer cells. It counts as cell-based. The settings on record: Homo sapiens, read-out: IC50, viability of ER+ cancer cells, E2-non-depleted cells, text summary of Table 1 over MCF-7, MCF-7/BUS. As to the method: (§2) Straightforward, the tetrazolium salt 3-(4,5-methyltiazol-2yl-)-2,5diphenyl-tetrazolium bromide (MTT) (Applichen, Darmstadt, Germany) was added to cells, incubated for 2–4 h at 37 °C, and lysed in 10% SDS. The mitochondrial metabolization of the tetrazolium salt was determined by the analysis of the optical density at 595 nm, measured with the iMark microplate Reader (Bio–Rad, Irvine, CA, USA).

The test system of the next test is T47D cells. Kind of test: MTT cell viability assay. It counts as cell-based, human. The settings on record: 72 h, 10%FBS growth media. As to the method:
as §2

The test system of a further test is PBMC. Kind of test: MTT cell viability assay. Format: cell-based. The settings on record: Homo sapiens, 72 h, 10%FBS growth media. As to the method: as §1
The subject of another test is VERO cells. Description: MTT cell viability assay. Format: cell-based, monkey. The settings on record: 72 h, 10%FBS growth media. As to the method: as §1
Test [2] relates to ERα-mediated transcription (3xERE-luciferase), T47D-KBluc cells. Kind of test: ER-dependent transcriptional activity, 3xERE-luciferase reporter in T47D-KBluc cells.
In test [3] the test system is ERα, pS2 and PR mRNA in MCF-7 cells. Kind of test: Quantitative real-time PCR of ERα-regulated genes. The settings on record: 3 h pretreatment, E2 10 nM 24 h; 32 5 µM, 35 10 µM, ICI 0.1 µM, 4-OHTAM 1 µM. Format: cell-based, human. As to the method: (§3) For gene expression analysis, MCF-7 and Ishikawa cells were deprived of steroid hormones by using a 10DCC-FBS medium for five days. Then, 1,500,000 cells/dish were seeded in 5DCC-FBS, followed by treatment with test compounds. Total RNA was isolated by using TRItidy G™ (Panreac Applichem ITW Reagents, Darmstadt, Germany). The concentration and purity of RNA were determined with a NanoDrop 1000 spectrophotometer (Wilmington, NC, USA). Then, 1 µg of total RNA was reversed and amplified with the iScriptTM kit (Bio-Rad) following the manufacturer’s protocol. SYBR Green PCR Master mix (Applied Biosystems, Bedford, MA, USA) reagent and exon-specific primers for ERα were used for Real-time quantitative PCR (qPCR). Gene expression was analyzed with an Mx3005P qPCR System (Agilent, Santa Clara, CA, USA), and cycle threshold values were calculated using MxPro qPCR Software (Agilent, CA, USA). Target gene expression was normalized to the expression of the 18S housekeeping gene. Data were expressed as relative expression values according to the comparative CT method for qPCR [42].

For test [4], the system named is ERα, pS2 and PR mRNA in Ishikawa cells. Kind of test: Quantitative real-time PCR of ERα-regulated genes. The conditions noted are these: 3 h pretreatment, E2 10 nM 24 h. It counts as cell-based, human. As to the method: as §3
A general note: In qPCR the cycle at which signal appears reflects the starting amount.

Test [5] concerns T47D estrogen-depleted cells. Kind of test: E2-induced proliferation of estrogen-depleted cells (AUC of growth kinetics). The settings on record: presence of E2 (0.1 nM), 10 days. Format: cell-based. As to the method:
To monitor long-term growth, human ER+ BC (T47-D, MCF-7, MCF-7/BUS), ER+ endometrial (Ishiwaka, High Point, NC, USA), or non-malignant breast (MCF-10A) cells were seeded at 3000–6000 cells per well. […] When indicated, cells were estrogen-deprived in a 10DCC-FBS supplemented medium for one week. […] Cytotoxicity was monitored by using YOYO-1 (Invitrogen, Waltham, MA, USA). Cell proliferation and cytotoxicity were monitored by sequential real-time microphotographs in an IncuCyte HD real-time imaging system (Essen BioScience, Hertfordshire, UK) for 5–10 days. The area under the curve (AUC) was then analyzed to know both the kinetics and dose-effect relationships. […] Next, cells were treated with VEH (0.05% DMSO) or test compounds for 5–10 days. Spheroid size and cell cytotoxicity were recorded with the Incucyte SX5 Live-Cell Analysis Instrument (Sartorius AG, Göttingen, Germany). To calculate the spheroid growth area, confluence measurements were taken considering the largest brightfield object area (µm^2). Cytotoxicity was monitored by using YOYO-1 (Essen Bioscience, Hertfordshire, UK).

Test [6] concerns STAT3 transcriptional activity in HEK293 cells. Kind of test: IL6-induced STAT3 transcriptional activity, Renilla reporter HEK-293 cells. The settings on record: hIL6 10 ng/ml.

Read-outs that look alike come from different tables or passages of the source. Bounds are passed on as bounds.

As for `COc1ccccc1C1=CC(O)(c2ccc([N+](=O)[O-])cc2)N(Cc2ccccc2)C1=O` (centres unmarked) [compound 49, 1-benzyl-5-hydroxy-3-(2-methoxyphenyl)-5-(4-nitrophenyl)-1H-pyrrol-2(5H)-one], the IC50 is over 10 µM with BT-549 cells (Homo sapiens, BT-549, 72 h); 7.94 ± 2.07 µM with MDA-MB-231 cells (Homo sapiens, MDA-MB-231, 72 h); 3.47 ± 1.12 µM in the test on MCF-7 cells (Homo sapiens, MCF7, 72 h); 0.31 ± 0.03 µM with MCF-10A cells (Homo sapiens, MCF-10A); over 10 µM in the test with SK-BR-3 cells (Homo sapiens, SK-BR-3, 72 h); over 10 µM in the test with Hs-578T cells (Homo sapiens, Hs-578T). Also, the IC50 is 4.82 ± 1.84 µM in the test with Ishikawa cells (Homo sapiens, Ishikawa); 5 ± 1.79 µM in the test with MCF-7/BUS cells (Homo sapiens, MCF7/BUS); under 10000 nM in test [1]; over 10 µM in the test with T47D cells (Homo sapiens, T47D).

Take `COc1cccc2c1C(=O)c1c(O)c3c(c(O)c1C2=O)C[C@@](O)(C(=O)CO)C[C@@H]3O[C@H]1C[C@H](N)[C@H](O)[C@H](C)O1` [DOXO, doxorubicin, reference compound]: the IC50 in the test with BT-549 cells (Homo sapiens, BT-549, 72 h) came to 0.19 ± 0.04 µM; in the test on MDA-MB-231 cells (Homo sapiens, MDA-MB-231, 72 h), 0.25 ± 0.07 µM; with MCF-7 cells (Homo sapiens, MCF7, 72 h), 0.07 ± 0.01 µM; with MCF-10A cells (Homo sapiens, MCF-10A), 0.09 ± 0.01 µM; in the test with SK-BR-3 cells (Homo sapiens, SK-BR-3, 72 h), 0.04 ± 0.01 µM; in the test with Hs-578T cells (Homo sapiens, Hs-578T), 0.37 ± 0.05 µM. Also, the IC50 in the test on Ishikawa cells (Homo sapiens, Ishikawa) is 0.09 ± 0.03 µM; with MCF-7/BUS cells (Homo sapiens, MCF7/BUS) it was 0.05 ± 0.02 µM; in the test with PBMC, 1.47 ± 0.69 µM; in the test on VERO cells (Primates, Vero), 2.62 ± 0.24 µM; with T47D cells (Homo sapiens, T47D), 0.15 ± 0.02 µM.

On to `C[C@]12CC[C@@H]3c4ccc(O)cc4C[C@@H](CCCCCCCCC[S+]([O-])CCCC(F)(F)C(F)(F)F)[C@H]3[C@@H]1CC[C@@H]2O` (some centres unmarked) [ICI, ICI-182,780, reference compound], for which the IC50 was over 25 µM in the test on BT-549 cells (72 h); over 25 µM in the test with MDA-MB-231 cells (72 h); 0.52 ± 0.16 µM in the test with MCF-7 cells (72 h); over 10 µM with MCF-10A cells; over 50 µM with SK-BR-3 cells (72 h); over 25 µM in the test with Hs-578T cells. For the same compound, the IC50 in the test on Ishikawa cells is over 10 µM; in the test on MCF-7/BUS cells it was 0.0006 µM; with VERO cells, over 10 µM; in [2] (read-out: IC50 (µM) on E2-induced luciferase activity, dose-response, 3 h pretreatment, then E2 0.1 nM 16–24 h) it was 0.00019 µM; in test [2] (read-out: IC50 on E2-induced ER-dependent transcriptional activity, co-incubation with E2), 0.0002 ± 8e-05 µM; in the test on T47D cells, 14.9 ± 5.19 µM. The IC50 in test [5] is 0.283 nM. Moreover, the “E/Emax (%) VEH” value in test [2] (compounds 10 µM, 3 h pretreatment, then vehicle 16–24 h, relative to Emax of E2) is on record as −9.15 ± 3.99%. Moreover, the “effect on E2-induced mRNA expression” value in test [3] is “blocked E2-induced mRNA levels of PR and pS2”; in test [4], “blocked E2-induced mRNA levels of PR and pS2”.

Turning to “hIL-6: pure agonist hIL6 (10 ng/mL) used to induce STAT3 transcriptional activity”, the “maximal luciferase activity or Emax” value in test [6] was 10.08 ± 2.41 fold induction.

With `COc1ccc(C2=CC(O)(c3ccc([N+](=O)[O-])cc3)N(Cc3ccccc3)C2=O)cc1` (centres unmarked) [compound 43, 1-benzyl-5-hydroxy-3-(4-methoxyphenyl)-5-(4-nitrophenyl)-1H-pyrrol-2(5H)-one], the IC50 was 6.23 ± 3.48 µM in the test on BT-549 cells (Homo sapiens, BT-549, 72 h); over 10 µM in the test with MDA-MB-231 cells (Homo sapiens, MDA-MB-231, 72 h); 6.54 ± 0.41 µM in the test with MCF-7 cells (Homo sapiens, MCF7, 72 h); 2.16 ± 0.05 µM in the test on SK-BR-3 cells (Homo sapiens, SK-BR-3, 72 h); over 10 µM with Hs-578T cells (Homo sapiens, Hs-578T); 3.47 ± 0.94 µM with Ishikawa cells (Homo sapiens, Ishikawa). Besides, the IC50 in the test with MCF-7/BUS cells (Homo sapiens, MCF7/BUS) was 2.85 ± 1.24 µM; in test [1], under 10000 nM; in the test with T47D cells (Homo sapiens, T47D) it was 8.57 ± 0.43 µM.
